In the experiment the target is T1, sGC (Homo sapiens, UniProt Q02108+Q02153).
T1 sequence (Q02108 1-690): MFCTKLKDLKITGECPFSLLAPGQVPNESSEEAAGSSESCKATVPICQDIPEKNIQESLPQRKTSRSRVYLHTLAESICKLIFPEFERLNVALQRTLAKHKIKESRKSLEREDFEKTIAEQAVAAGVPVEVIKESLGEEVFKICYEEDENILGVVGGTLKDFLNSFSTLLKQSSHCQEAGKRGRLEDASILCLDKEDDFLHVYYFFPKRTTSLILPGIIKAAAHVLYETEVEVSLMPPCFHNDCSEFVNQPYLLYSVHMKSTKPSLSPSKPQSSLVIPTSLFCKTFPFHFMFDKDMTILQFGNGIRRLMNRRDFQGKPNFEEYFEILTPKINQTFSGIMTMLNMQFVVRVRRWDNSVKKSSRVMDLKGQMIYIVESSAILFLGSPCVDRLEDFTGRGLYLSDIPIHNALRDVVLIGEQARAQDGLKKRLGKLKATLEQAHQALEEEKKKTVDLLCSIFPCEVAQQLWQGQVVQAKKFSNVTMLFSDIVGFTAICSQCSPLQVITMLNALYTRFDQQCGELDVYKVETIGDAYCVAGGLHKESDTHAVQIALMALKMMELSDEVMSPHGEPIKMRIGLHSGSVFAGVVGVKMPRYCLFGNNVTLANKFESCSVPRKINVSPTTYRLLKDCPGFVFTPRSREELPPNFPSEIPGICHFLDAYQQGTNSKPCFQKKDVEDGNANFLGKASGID
T1 sequence (Q02153 1-619): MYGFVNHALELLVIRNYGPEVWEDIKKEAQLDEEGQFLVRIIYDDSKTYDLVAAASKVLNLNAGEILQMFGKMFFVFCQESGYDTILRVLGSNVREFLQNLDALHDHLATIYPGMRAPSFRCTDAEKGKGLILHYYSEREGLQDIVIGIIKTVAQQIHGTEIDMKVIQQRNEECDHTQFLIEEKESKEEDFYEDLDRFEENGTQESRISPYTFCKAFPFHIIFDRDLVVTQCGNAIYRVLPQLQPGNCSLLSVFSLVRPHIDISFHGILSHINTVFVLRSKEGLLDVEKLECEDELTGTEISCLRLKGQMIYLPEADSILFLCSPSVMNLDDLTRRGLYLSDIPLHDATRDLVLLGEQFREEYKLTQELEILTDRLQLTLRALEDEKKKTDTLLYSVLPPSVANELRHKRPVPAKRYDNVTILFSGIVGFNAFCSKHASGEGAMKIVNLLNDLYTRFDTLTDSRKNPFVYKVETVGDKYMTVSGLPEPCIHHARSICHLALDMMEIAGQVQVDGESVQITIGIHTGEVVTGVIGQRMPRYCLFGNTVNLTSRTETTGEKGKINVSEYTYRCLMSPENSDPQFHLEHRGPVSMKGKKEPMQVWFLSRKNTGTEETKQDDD
Nature of the experiment: Earlier laboratory observation of effect on sGC (data not shown). In kind it is biochemical. Particulars: low millimolar concentrations. The method, then:
In the course of studies in our laboratory we observed activation of sGC with the anti-epileptic drug lamotrigine 2 and inhibition with lamotrigine analogues sipatrigine 3 and 4, all at low millimolar concentrations (data not shown) (Fig. 1). These compounds were used as the starting point for a screening study to find new inhibitors of sGC. The strategy was to conduct several rounds of similarity searching and screening to identify the best inhibitors. Some synthetic studies were conducted on the best hit to explore the structure–activity relationships.

Take `Nc1nc(N)c(-c2cc(Cl)cc(Cl)c2Cl)c(C(F)(F)F)n1` [Compound 4]: the “effect on sGC” value is recorded as “inhibition”.

As for `CN1CCN(c2ncc(-c3cc(Cl)cc(Cl)c3Cl)c(N)n2)CC1` [Compound 3, sipatrigine], the “effect on sGC” value is recorded as “inhibition”.

Regarding `Nc1nnc(-c2cccc(Cl)c2Cl)c(N)n1` [Compound 2, lamotrigine], the “effect on sGC” value is “activation”.

These data come from PMC4558462, “A new small molecule inhibitor of soluble guanylate cyclase” (Bioorganic & Medicinal Chemistry, 2015).
